Measurements: patent US11622980B2, “Compositions comprising prebiotics and probiotics” (OPTIBIOTIX LIMITED, priority 2017, dated 2023)
“Also recorded” adds a separate entry of the source. Like-named read-outs stand apart in the source and are kept apart here.

Legend:
L. rhamnosus ATCC 53103 [1] = assay: Pure culture growth screening of L. rhamnosus ATCC 53103 on oligo/polysaccharides; assay type: cell-based, Lactobacillus rhamnosus
Excerpt: Commercially available prebiotics and other oligo and polysaccharides were first screened using a fast throughput automated growth culture system under anaerobic conditions to establish ability to support LR growth and define growth rates (1% w/v). The following test substrates had been initially identified for further consideration: Short chain fructooligosaccharides (scFOS), oligofructose P95 (FOS), Orafti ST, Orafti HP, Synergy 1, Bioecolians (glucooligosaccharides), gentiooligosaccharides, fucosyllactose, ß glucan (low/medium/high molecular weight; derived from oats), yeast ß glucan, arabinoxylan, xylooligosaccharides, caseinoglycomacropeptide (cgmp), raffinose, stachyose and Bio-Mos.
The aim of the experiment was to investigate the growth behavior of L. rhamnosus ATCC 53103 under a wide variety of commercially available, oligo and polysaccharides and to evaluate impact of test substrate physical characteristics on screening process and investigate growth on GOS synthesized by L. rhamnosus GR1 β-galactosidases. Results would be evaluated on the basis of: microbial growth (OD-Fermentation time); growth rate [μmax(h^−1)]; and change in optical density (max-min). Growth preferences of Lactobacillus rhamnosus ATCC 53103 would be used to determine target structures and carbohydrates for use as prebiotics for L. rhamnosus species or strains. […]

[2] = system: gas producing members of the faecal microbiota; assay: Rate of gas and cumulative gas determination in non-pH controlled faecal culture; assay type: cell-based, healthy adults
Method: The aims of this experiment were to determine: (i) the total gas production over a 24 h fermentation period of each of carbohydrate of interest; (ii) the kinetics of gas production (rate) to evaluate the potential of increased abdominal discomfort in vivo upon the ingestion of the carbohydrates of interest; and (iii) the impact of using the selected carbohydrates in combination with LR on total and rate of gas production.
Determination of rate of gas was of particular importance as gas generation at specific time points rather than continuously at low or moderate levels may correlate with abdominal discomfort in vivo and important in relevance to consumer acceptability.
The experiments investigated the potential for gastrointestinal discomfort in vitro, through the determination of rate of gas and cumulative gas production in faecal culture. The cultures were non-pH controlled and six experimental runs were conducted using faeces from six different healthy adults. Headspace gas readings collected every 3 h over a 24 h period for rate of gas determination
The experimental design was as follows: • Faeces • Faeces+L. rhamnosus ATCC 53103 (negative control) • Faeces+Inulin HP (positive prebiotic control) • Faeces+Inulin HP+L. rhamnosus ATCC 53103 (positive synbiotic control) • Faeces+test carbohydrate • Faeces+test carbohydrate+L. rhamnosus ATCC 53103 Lactobacillus rhamnosus ATCC 53103 Test Dose Determination
Intervention dose used in the non-pH controlled gas determination experiments and the pH controlled faecal batch culture experiments was calculated based on the relative amounts of faecal inoculum and LR viable counts in the gut model (low dose, 0.75×10^4 cfu) and the relative concentrations of total bacteria to LR viable counts in the gut model (high dose, 5.36×10^4 cfu). Both doses were tested in the non-pH controlled gas determination faecal cultures to determine the possible role of LR in rate and cumulative gas production.

L. rhamnosus ATCC 53103 [3] = assay: qPCR determination of LR concentrations in anaerobic pH controlled faecal batch culture; assay type: cell-based, Lactobacillus rhamnosus; conditions: for LR concentration (growth) in faecal culture: pH controlled anaerobic faecal batch culture, 1% w/v substrate, LR 5.36×10^4 cfu
Method: Synbiotic potential of the selected oligosaccharides/blends was then to be determined in 24 h, anaerobic, pH and temperature controlled micro-scale faecal (10 ml working volume) faecal batch culture models.
The models had been optimised to work at 1% w/v test oligosaccharide concentration and carried out at pH6.8, which is relevant to the distal colon. Conditions in the distal colon (carbohydrate availability, very slow transit time) are more relevant to batch culture design. Fermentations were to be set up in parallel in identical conditions with the only variable being the test oligosaccharides. The following combinations were to be tested in each experimental run: • Faeces (prebiotic negative control) • Faeces+LR (synbiotic negative control) • Faeces+LR+GeOS (gentiooligosaccharides) • Faeces+LR+Cellb (cellobiose) • Faeces+LR+XOS (xylooligosaccharides) • Faeces+GeOS • Faeces+Cellb • Faeces+XOS • Feces+inulin (positive prebiotic control for test prebiotics) • Faeces+FOS (positive prebiotic control for test prebiotics) • Faeces+LR+inulin (positive prebiotic control for test synbiotics) • Faeces+LR+FOS (positive prebiotic control for test synbiotics)
All vessels, run in parallel, were to be inoculated with the same faecal sample and the experiment repeated using a faecal sample from each of six different healthy donors. […] levels in faecal culture using qPCR; and determination of the impact of each intervention on commensal faecal microbiome composition using FISH to ensure novel prebiotic will not be fermented by undesirable bacteria and ensure selectivity in a complex, competitive culture environment. Analysis targeted numerically dominant and functionally significant faecal bacterial groups including Bacteroides, Clostridium, Eubacterium, Propionibacterium, Bifidobacterium, Lactobacillus, Faecalibacterium, Atopobium, and Desulfovibrio.
(§1) An in vitro assessment of synbiotic efficacy in faecal culture using a pH controlled, anaerobic, temperature controlled cultures. The cultures were inoculated with faecal slurry of each of 6 healthy adults. The combinations included: • Faeces (prebiotic negative control) • Faeces+LR (synbiotic negative control) • Faeces+LR+GeOS (gentiooligosaccharides) • Faeces+LR+Cellb (cellobiose) • Faeces+LR+XOS (xylooligosaccharides) • Faeces+GeOS • Faeces+Cellb • Faeces+XOS • Feces+inulin (positive prebiotic control for test prebiotics) • Faeces+FOS (positive prebiotic control for test prebiotics) • Faeces+LR+inulin (positive prebiotic control for test synbiotics) • Faeces+LR+FOS (positive prebiotic control for test synbiotics)
No commensal LR was detected in the prebiotic only cultures (data not shown).
The primers for the real-time PCR determination was as follows: […]

[4] = system: Lactobacillus/Enterococcus (Lab158); assay: FISH of commensal bacteria in pH controlled faecal culture, probe Lab158; assay type: cell-based, healthy adults
Method: (§2) All vessels, run in parallel, were to be inoculated with the same faecal sample and the experiment repeated using a faecal sample from each of six different healthy donors. Samples were to be obtained at inoculation (0 h) and then at 8 and 24 h of fermentation for: determination of LR levels in faecal culture using qPCR; and determination of the impact of each intervention on commensal faecal microbiome composition using FISH to ensure novel prebiotic will not be fermented by undesirable bacteria and ensure selectivity in a complex, competitive culture environment. Analysis targeted numerically dominant and functionally significant faecal bacterial groups including Bacteroides, Clostridium, Eubacterium, Propionibacterium, Bifidobacterium, Lactobacillus, Faecalibacterium, Atopobium, and Desulfovibrio.
(§3) An in vitro assessment of synbiotic efficacy in faecal culture using a pH controlled, anaerobic, temperature controlled cultures. The cultures were inoculated with faecal slurry of each of 6 healthy adults. […]
(§4) Fluorescent in situ hybridisation (FISH) experiments were then conducted to investigate the impact on commensal gut microbiome bacterial populations in faecal culture and the fluorescently labelled micrographs are shown in FIG. 20. FISH is a fully quantitative methodology for determining bacterial concentrations at the genus and species level. […]

[5] = system: Bacteroides/Prevotella (Bac303); assay: FISH of commensal bacteria in pH controlled faecal culture, probe Bac303; assay type: cell-based, healthy adults; conditions: pH controlled anaerobic faecal culture
Method: as §2, §3, §4

Ato291 (Atopobium) = assay: FISH of commensal bacteria in pH controlled faecal culture, probe Ato291; assay type: cell-based, healthy adults; conditions: pH controlled anaerobic faecal culture, FIG. 25
Method: as §2, §3, §4

L. rhamnosus ATCC 53103 [6] = assay: Organic acid (SCFA and lactate) synthesis in pH controlled faecal batch culture; assay type: cell-based, Lactobacillus rhamnosus; conditions: pH controlled faecal batch cultures with LR
Excerpt: Lastly, determination of faecal microbiome activity through organic acid (SOFA and lactate) measurement was to be conducted at each sampling point. Information will indicate potential fermentation rates of each novel prebiotic.
as §1

[7] = system: Lactobacillus plantarum 2830 (ECGC 13110402); assay: Pure culture growth of Lactobacillus plantarum 2830 (LP-LDL) on carbohydrate sources; assay type: cell-based; conditions: modified MRS, glucose (1% wt/vol) substituted, anaerobic, 37° C., OD 620 nm
Method: Similar growth experiments to Example 1 above were conducted on Lactobacillus plantarum 2830 (ECGC 13110402) on a range of substrates including, MRS+LP, Glucose, Lactose, LP GOS, alphaGOS (a proprietary GOS product), Raffinose, Galactose, Cellobiose, FOS (short chain), Sucrose, GOS I (a proprietary GOS product), GOS II (a proprietary GOS product), GOS III (a proprietary GOS product) and Gentiooligosaccharides (GeOS). […] Experiments were carried out under anaerobic conditions on a 96-well microtiter plate system (FLUOstar Omega, BMG LABTECH) in a final volume of 200 μL using an inoculum size 10% (w/v), previously diluted to obtain an initial OD620 nm=0.2. Incubation was conducted under anaerobic conditions at 37° C. with interval shaking at 500 rpm every 5 min. Optical density measurements at 620 nm were employed to assess microbial growth.

Molecule | lag phase (L. rhamnosus ATCC 53103 [1]; pure culture growth curves, 1% (w/v) substrate, FIG. 9) | growth of LR in pure culture (L. rhamnosus ATCC 53103 [1]; pure culture, modified MRS, 1% w/v test carbohydrate) | rate of gas production ([2]; 24 h non-pH controlled faecal culture, readings every 3 h, relative to inulin) | cumulative gas production ([2]; 24 h non-pH controlled faecal culture, relative to inulin) | donors sensitive to the test oligosaccharide (total gas production) ([2]; 24 h non-pH controlled faecal fermentation, six faecal donors) | volunteers showing an increase of L. rhamnosus ATCC 53103 concentrations (L. rhamnosus ATCC 53103 [3]; 0, 10 and 24 h pH controlled faecal batch culture, six volunteers, qPCR) | LR concentration (growth) in faecal culture (L. rhamnosus ATCC 53103 [3]; qPCR) | LR concentration (growth) in faecal culture (L. rhamnosus ATCC 53103 [3]; qPCR, listed as Cellobiose) | dependence of the effect on LR on faecal donor (L. rhamnosus ATCC 53103 [3]; pH controlled faecal batch cultures, six donors) | responders within the 6 faecal donors (Lab158) ([4]; compared to the positive controls (inulin and FOS)) | Lab158 (Lactobacillus/Enterococcus) concentration ([4]; pH controlled anaerobic faecal culture, six healthy adults, FISH) | Bacteroides/Prevotella (Bac303) concentration [5] | Ato291 concentrations (Ato291 (Atopobium)) | LR activity (organic acid synthesis) (L. rhamnosus ATCC 53103 [6]) | growth rates of LP-LDL [7] | growth yields of LP-LDL [7] | donors sensitive to the test oligosaccharide (total gas production) [2] | rate of gas production [2] | tolerance by donors (total gas and rate of gas) [2]
O=C[C@H](O)[C@@H](O)[C@H](O[C@@H]1O[C@H](CO)[C@@H](O)[C@H](O)[C@H]1O)[C@H](O)CO [cellobiose] | notably longer lag phase | can grow in pure culture | comparable to that of inulin | comparable to that of inulin | Donors 4 and 7; also recorded: donor 5 | Five out of the six | growth of LR | best growth substrate for LR; also recorded: increases in LR concentration | not dependent on faecal donor enterotype | More responders | significant increase | some impact | some increases | mediated increases in LR concentration and activity | highest growth rates | highest growth yields | – | – | –
xylooligosaccharides [XOS] | – | – | – | – | – | – | – | – | – | – | – | – | – | – | – | – | Donors 4 and 7 | comparable to that of inulin | tolerated the best by the majority of donors
gentiooligosaccharides [GeOS] | – | – | – | – | – | – | – | – | – | – | – | – | – | – | – | – | Donors 4 and 7 | comparable to that of inulin | tolerated the best by the majority of donors
